Key:
11β-hsd-1 enzyme [1] = target: T1, 11β-hsd-1 enzyme (Homo sapiens, UniProt P28845); assay: biochemical
Procedure, shortened: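 Enzyme (5 nM) pre-incubated ≥30 min at RT with inhibitor and 500 μM NADPH in triethanolamine buffer pH 8.0; reaction started with glucose-6-phosphate regenerating system and 200 nM 3H-cortisone, stopped with DMSO after 60 min. Product quantified by radio-HPLC; Kiapp from Morrison tight-binding equation.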

11β-hsd-1 enzyme [2] = target: T1, 11β-hsd-1 enzyme; assay: biochemical; details: read-out: % Inh @ 0.1 mM; for inhibition at 100 µM: Table 2, inhibitor 0.1 mM as printed
Procedure, shortened: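 Human 11β-HSD-1 (5 nM) pre-incubated ≥30 min with inhibitor and 500 μM NADPH in triethanolamine buffer pH 8.0 with NaCl, n-dodecyl β-D-maltoside and β-ME; reaction started with G6P/G6PDH/MgCl2 regenerating system and 200 nM 3H-cortisone, run 60 min, stopped with DMSO. 3H-cortisol and substrate separated by radio-HPLC; percent inhibition from peak areas.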

T1 sequence (P28845 whole entry, species assumed): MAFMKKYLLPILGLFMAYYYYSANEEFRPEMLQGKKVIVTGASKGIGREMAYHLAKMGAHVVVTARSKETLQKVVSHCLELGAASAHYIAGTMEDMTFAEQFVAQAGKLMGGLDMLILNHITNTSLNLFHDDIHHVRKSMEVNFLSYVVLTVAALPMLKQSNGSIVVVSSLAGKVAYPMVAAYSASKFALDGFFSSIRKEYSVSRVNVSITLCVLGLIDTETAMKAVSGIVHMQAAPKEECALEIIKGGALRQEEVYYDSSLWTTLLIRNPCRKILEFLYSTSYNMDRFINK

Row | Structure (SMILES) | Ki (11β-hsd-1 enzyme [1]) | inhibition (11β-hsd-1 enzyme [2]) | inhibition at 100 µM (11β-hsd-1 enzyme [2])
1 | Cc1cccc(NS(=O)(=O)N2CCN(c3ncccc3C#N)CC2)n1 [Example 132, 4-(3-cyanopyridin-2-yl)-N-(6-methylpyridin-2-yl)piperazine-1-sulfonamide] | 46 nM | 74.8% | 
2 | Cc1cccc(NS(=O)(=O)N2CCCN(c3ncccn3)CC2)n1 [Example 133, N-(6-methylpyridin-2-yl)-4-pyrimidin-2-yl-14-diazepane-1-sulfonamide] | 330 nM | 71% | 
3 | Cc1cccc(NS(=O)(=O)N2CCCN(C(=O)OCc3ccccc3)CC2)n1 [Example 134, benzyl 4-{[(6-methylpyridin-2-yl)amino]sulfonyl}-14-diazepane-1-carboxylate] | 110 nM | 76.7% | 
4 | COc1cccc(N2CCN(S(=O)(=O)Nc3cccc(C)n3)CC2)n1 [Example 136, 4-(6-methoxypyridin-2-yl)-N-(6-methylpyridin-2-yl)piperazine-1-sulfonamide] | 6.5 nM | 93.7% | 
5 | COc1ccc2oc(N3CCN(S(=O)(=O)Nc4cccc(C)n4)CC3)nc2c1 [Example 137, 4-(5-methoxy-13-benzoxazol-2-yl)-N-(6-methylpyridin-2-yl)piperazine-1-sulfonamide] | 9.9 nM | 93.8% | 
6 | Cc1cccc(NS(=O)(=O)N2CCN(c3nc4ccc(Cl)cc4o3)CC2)n1 [Example 138, 4-(6-chloro-13-benzoxazol-2-yl)-N-(6-methylpyridin-2-yl)piperazine-1-sulfonamide] | 8.4 nM |  | 100%
7 | Cc1cccc(NS(=O)(=O)N2CCCN(c3ncccc3C#N)CC2)n1 [Example 139, 4-(3-cyanopyridin-2-yl)-N-(6-methylpyridin-2-yl)-14-diazepane-1-sulfonamide] | 88 nM | 86.5% | 
8 | Cc1ccc(N2CCN(S(=O)(=O)Nc3cccc(C)n3)CC2=O)cc1 [Example 140, 4-(4-methylphenyl)-N-(6-methylpyridin-2-yl)-3-oxopiperazine-1-sulfoflamide] | 250 nM |  | 85.7%
9 | CCc1cccc(NS(=O)(=O)N2CCN(c3ncc(-c4ccc(OC)cc4)cn3)CC2)n1 [Example 144, N-(6-ethylpyridin-2-yl)-4-[5-(4-methoxyphenyl)pyrimidin-2-yl]piperazine-1-sulfonamide] | 1 nM | 100% | 
10 | CCc1cccc(NS(=O)(=O)N2CCN(c3nc4ncccc4o3)CC2)n1 [Example 145, N-(6-ethylpyridin-2-yl)-4-[13]oxazolo[45-b]pyridin-2-ylpiperazine-1-sulfanamide] | 62 nM | 79.2% | 
11 | CCc1cccc(NS(=O)(=O)N2CCc3nc(-c4ccccc4)nc(C(=O)NC)c3C2)n1 [Example 148, 6-{[(6-ethylpyridin-2-yl)amino]sulfonyl}-N-methyl-2-phenyl-5678-tetrahydro-pyrido[43-d]pyrimidine-4-carboxamide] | 26 nM | 83.9% | 
12 | CCc1cccc(NS(=O)(=O)N2CCN(c3nc4nc(C)ccc4o3)CC2)n1 [Example 149, N-(6-ethylpyridin-2-yl)-4-(5-methyl[13]oxazolo[45-b]pyridin-2-yl)piperazine-1-sulfonamide] | 280 nM | 78.2% | 
13 | CCc1cccc(NS(=O)(=O)N2CCCN(c3nc4cc(Cl)ccc4o3)CC2)n1 [Example 150, 4-(5-chloro-13-benzoxazol-2-yl)-N-(6-ethylpyridin-2-yl)-14-diazepane-1-sulfonamide] | 23 nM | 90.3% | 
14 | COc1ccc(-c2cnc(N3CCN(S(=O)(=O)Nc4cccc(C)n4)CC3)nc2)cc1 [Example 151, 4-[5-(4-methoxyphenyl)-pyrimidin-2-yl]-N-(6-methylpyridin-2-yl)piperazine-1-sulfonamide] | 1 nM | 100% | 
15 | Cc1cccc(NS(=O)(=O)N2CCCN(c3nc4cc(Cl)ccc4o3)CC2)n1 [Example 153, 4-(5-chloro-13-benzoxazol-2-yl)-N-(6-methylpyridin-2-yl)-14-diazepane-1-sulfonamide] | 8.2 nM |  | 100%
16 | O=S(=O)(Nc1ccc2ccccc2n1)N1CCN(c2ncccn2)CC1 [Example 154, 4-pyrimidin-2-yl-N-quinolin-2-ylpiperazine-1-sulfonamide] | 5.1 nM | 100% | 
17 | O=S(=O)(Nc1ccc2ccccc2n1)N1CCCCCCC1 [Example 155, N-quinolin-2-ylazocane-1-sulfonamide] | 7.1 nM | 90.6% | 
18 | O=S(=O)(Nc1ccc2ccccc2n1)N1CCN(c2ccccn2)CC1 [Example 156, 4-pyridin-2-yl-N-quinolin-2-ylpiperazine-1-sulfonamide] | 17 nM | 92.9% | 
19 | O=S(=O)(Nc1ccc2ccccc2n1)N1CCCCCC1 [Example 157, N-quinolin-2-ylazepane-1-sulfonamide] | 32 nM |  | 100%
20 | CCOC(=O)N1CCN(S(=O)(=O)Nc2ccc3ccccc3n2)CC1 [Example 160, ethyl 4-[(quinolin-2-ylamino)sulfonyl]piperazine-1-carboxylate] | 11 nM | 85.7% | 
21 | Cc1cccc(N2CCN(S(=O)(=O)Nc3ccc4ccccc4n3)CC2)n1 [Example 161, 4-(6-methylpyridin-2-yl)-N-quinolin-2-ylpiperazine-1-sulfonamide] | 16 nM | 91.9% | 
22 | N#Cc1cccnc1N1CCN(S(=O)(=O)Nc2ccc3ccccc3n2)CC1 [Example 162, 4-(3-cyanopyridin-2-yl)-N-quinolin-2-ylpiperazine-1-sulfonamide] | 26 nM | 92.2% | 
23 | O=C(OCc1ccccc1)N1CCCN(S(=O)(=O)Nc2ccc3ccccc3n2)CC1 [Example 164, benzyl 4-[(quinolin-2-ylamino)sulfonyl]-14-diazepane-1-carboxylate] | 38 nM | 81.4% | 
24 | COc1cccc(N2CCN(S(=O)(=O)Nc3ccc4ccccc4n3)CC2)n1 [Example 165, 4-(6-methoxypyridin-2-yl)-N-quinolin-2-ylpiperazine-1-sulfonamide] | 1.4 nM | 100% | 
25 | COc1ccc2oc(N3CCN(S(=O)(=O)Nc4ccc5ccccc5n4)CC3)nc2c1 [Example 166, 4-(5-methoxy-13-benzoxazol-2-yl)-N-quinolin-2-ylpiperazine-1-sulfonamide] | 16 nM | 100% | 
26 | O=C1CN(S(=O)(=O)Nc2ccc3ccccc3n2)CCN1C1CCCC1 [Example 169, 4-cyclopentyl-3-oxo-N-quinolin-2-ylpiperazine-1-sulfonamide] | 68 nM | 84.6% | 
27 | O=C1CN(S(=O)(=O)Nc2ccc3ccccc3n2)CCN1Cc1ccc(F)cc1 [Example 173, 4-(4-fluorobenzyl)-3-oxo-N-quinolin-2-ylpiperazine-1-sulfonamide] | 130 nM |  | 75.5%
28 | O=S(=O)(Nc1ccc2ccccc2n1)N1CCN(c2nc3ncccc3o2)CC1 [Example 176, 4-[13]oxazolo[45-b]pyridin-2-yl-N-quinolin-2-ylpiperazine-1-sulfonamide] | 110 nM | 70.4% | 
29 | O=C(c1ccc(N2CCN(S(=O)(=O)Nc3ccc4ccccc4n3)CC2)nc1)N1CCOCC1 [Example 178, 4-[5-(morpholin-4-ylcarbonyl)pyridin-2-yl]-N-quinolin-2-ylpiperazine-1-sulfonamide] | 190 nM | 73.3% | 
